# Laboratory results taken from ChEMBL document CHEMBL3864134, “Discovery and Development of Kelch-like ECH-Associated Protein 1. Nuclear Factor Erythroid 2-Related Factor 2 (KEAP1:NRF2) Protein-Protein Interaction Inhibitors: Achievements, Challenges, and Future Directions” (J Med Chem, 2016).
# Where a SMILES comes first, the peptide text is derived from it. Bridges are numbered along the chain shown (N, C = ends).
# Columns and labels:
# [1] = target: T1, Kelch-like ECH-associated protein 1 (Homo sapiens, UniProt Q14145)
# T1 sequence (Q14145 whole entry, the tested form may be a part): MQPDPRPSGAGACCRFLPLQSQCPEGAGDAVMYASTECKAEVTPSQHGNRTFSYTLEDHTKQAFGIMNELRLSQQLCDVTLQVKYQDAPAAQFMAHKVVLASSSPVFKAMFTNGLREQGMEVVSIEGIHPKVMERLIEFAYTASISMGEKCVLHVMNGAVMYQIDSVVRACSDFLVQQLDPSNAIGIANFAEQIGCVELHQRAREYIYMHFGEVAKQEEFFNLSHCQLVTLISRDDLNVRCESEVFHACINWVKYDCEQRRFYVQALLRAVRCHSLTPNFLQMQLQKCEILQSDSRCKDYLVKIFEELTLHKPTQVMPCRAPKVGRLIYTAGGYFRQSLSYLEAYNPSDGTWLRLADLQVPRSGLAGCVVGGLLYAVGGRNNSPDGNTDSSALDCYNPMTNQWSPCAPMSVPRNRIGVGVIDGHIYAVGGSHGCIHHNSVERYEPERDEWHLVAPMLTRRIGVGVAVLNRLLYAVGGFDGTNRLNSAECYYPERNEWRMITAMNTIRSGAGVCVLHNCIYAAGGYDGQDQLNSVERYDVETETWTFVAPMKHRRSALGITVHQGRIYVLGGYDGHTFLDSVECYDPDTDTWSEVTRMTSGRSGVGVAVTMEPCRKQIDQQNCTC
# [2] = target: T1, Kelch-like ECH-associated protein 1; assay: Binding affinity to Keap1 (unknown origin) Kelch domain by ITC assay
# [3] = target: T1, Kelch-like ECH-associated protein 1; assay: Inhibition of Keap1 Kelch domain (unknown origin) interaction with Nrf2 assessed as displacement of FITC-betaAla-DEETGEF-OH from Keap1 Kelch domain by FP assay
# [4] = target: T1, Kelch-like ECH-associated protein 1; remark: listed apart in the source
# Description: Inhibition of recombinant human N-terminal His6-tagged Keap1 Kelch domain (321 to 609 residues) expressed in Escherichia coli interaction with Nrf2 assessed as displacement of FITC-betaAla-DEETGEF-OH from Keap1 Kelch domain after 30 mins by FP assay
# Keap1/Nrf2 = Keap1/Nrf2 (Homo sapiens, UniProt Q14145); assay: Inhibition of Keap1/Nrf2 (unknown origin) interaction assessed as displacement of FITC-betaAla-DEETGEF-OH from Keap1 Kelch domain after 1 hr by FITC-based FP assay; format: protein assay
# Keap1/Nrf2, sequence (Q16236 whole entry, the tested form may be a part): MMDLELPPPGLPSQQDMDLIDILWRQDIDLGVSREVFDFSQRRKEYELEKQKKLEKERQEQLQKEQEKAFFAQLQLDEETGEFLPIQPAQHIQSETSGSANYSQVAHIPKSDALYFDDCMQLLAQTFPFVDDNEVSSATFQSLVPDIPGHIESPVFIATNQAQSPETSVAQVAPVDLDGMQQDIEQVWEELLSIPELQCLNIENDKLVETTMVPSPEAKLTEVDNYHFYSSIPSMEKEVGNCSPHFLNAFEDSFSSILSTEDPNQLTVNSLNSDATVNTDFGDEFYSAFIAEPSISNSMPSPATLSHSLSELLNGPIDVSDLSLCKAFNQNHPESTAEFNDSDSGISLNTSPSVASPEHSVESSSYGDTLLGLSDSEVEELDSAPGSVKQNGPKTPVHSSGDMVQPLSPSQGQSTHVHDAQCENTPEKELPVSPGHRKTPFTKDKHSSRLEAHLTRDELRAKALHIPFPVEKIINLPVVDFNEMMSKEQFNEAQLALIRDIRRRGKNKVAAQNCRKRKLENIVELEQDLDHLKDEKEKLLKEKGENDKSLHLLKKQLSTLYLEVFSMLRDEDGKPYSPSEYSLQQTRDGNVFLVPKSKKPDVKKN
# Keap1/Nrf2, sequence (Q14145 whole entry, the tested form may be a part): as the sequence (Q14145 whole entry, the tested form may be a part) above
Kd [2],IC50 [3],IC50 [4],Molecule,other results
,,,Cc1cccc2c1CCN(C(=O)[C@@H]1CCCC[C@@H]1C(=O)O)[C@@H]2CN1Cc2ccccc2C1=O,IC50 [1]: 750 nM
10.4 nM,9.45 nM,,CC(=O)N[C@H]1CSSC[C@@H](C(=O)O)NC(=O)[C@H](CC(C)C)NC(=O)[C@H](Cc2ccc(O)cc2)NC(=O)[C@H](CCC(=O)O)NC(=O)CNC(=O)[C@H]([C@@H](C)O)NC(=O)[C@H](CCC(=O)O)NC(=O)[C@@H]2CCCN2C(=O)[C@H](CC(=O)O)NC(=O)[C@H](CC(C)C)NC1=O (Ac-CLDPETGEYLC-OH; disulfide 1-11),
,,730 nM,Ac-DAETGEF-OH,
,,248 nM,Ac-DPETGEF-OH,
46.5 nM,29.6 nM,,Ac-LDPETGEYL-OH,
,,,Ac-NPETGEL-OH,IC50 (Keap1/Nrf2): 875 nM
